What was measured:
[1] = test system: tibialis anterior muscle in mice where the sciatic nerve has been denervated; experiment: Weight reduction of tibialis anterior after denervation of the sciatic nerve (model of muscular atrophy); format: in vivo, Swiss mice; details: 300 nmol/kg weight local, 14 days
Procedure: FIG. 14. Analysis of the weight reduction of the tibialis anterior muscle in mice where the sciatic nerve has been denervated (model of muscular atrophy) under the exogenous administration of obestatin or vehicle (PBS). Swiss mice were used whereon the sciatic nerve was denervated in one of the limbs, using the other as control. The effect of the administration of obestatin (300 nmol/kg weight) or the vehicle (PBS; control) was assessed in the tibialis anterior muscle after 14 days. The data are expressed as % of weight reduction with respect to the control without denervation (n=5 per group; mean±standard error; *, p<0.005).
To study muscular atrophy, the sciatic nerve was denervated using Swiss mice. The denervation of the sciatic nerve was performed under anaesthesia, making an incision in the mid thigh on the lateral face of the rear right limb, separating the muscles and raising the sciatic nerve with surgical forceps. A portion of the nerve was isolated removing a fragment thereof. Finally the incision was closed. These animals were locally administered an injection of obestatin (300 nmol/kg weight) or the corresponding vehicle (PBS; control) in intervals of 24 h during 14 days.

ERK 1/2 = experiment: Activation of ERK 1/2 [pERK1/2(T202/Y204)] by obestatin in L6E9 myoblasts, immunoblot; format: cell-based, rat
Procedure: FIG. 1. Activation of regulatory enzymes of mitogenesis and myogenesis by obestatin in L6E9 myoblasts and myotubes. Effect of obestatin on activity of regulatory enzymes of the mitogenic capacity (ERK 1/2), metabolic capacity (Akt and AMPK) and myogenic capacity (Akt and p38). Based on a dose-response study, the saturating dose for the maximum enzymatic activation is established for a concentration of 5 nM. […] Inactivation of AMPK is described in both cell models. The activation profile discovers bimodal characteristics for the action of obestatin: 1.—mitogenic activation in myoblasts; and, 2.—myogenic activation. The immunoblots are representative of 6 independent assays.
The studies were performed based on the use of L6E9 rat myoblasts which were maintained in growth medium (GM) formed by DMEM (Dulbecco's Modified Eagle Medium) supplemented with 10% fetal bovine serum (FBS), 100 U/mL penicillin, and 100 U/mL streptomycin. For the differentiation, the cells were cultured at 80-100% of confluence in GM and it was replaced for differentiation medium (DM) formed by DMEM supplemented with 2% FBS, 100 U/mL penicillin, and 100 U/mL streptomycin during 6 days.
The tissue or cell samples were directly lysed in RIPA buffer [Tris-HCl (pH 7.2), 50 mM; NaCl, 150 mM; EDTA, 1 mM; NP-40, 1% (v/v); Sodium deoxycholate, 0.25% (w/v); protease inhibitors (Sigma); phosphatise inhibitors (Sigma)]. The lysates were clarified by centrifugation (14,000×g during 15 min at 4° C.) and the protein concentration was quantified using QuantiPro™ BCA assay kit (Sigma). For immunoblot, equal amounts of protein were loaded which were fractionated in SOS-PAGE gels and transferred to nitrocellulose membranes. The immunoreactive bands were detected by chemiluminescence (Pierce ECL Western Blotting Substrate; Thermo Scientific, Ill., USA).
To define the mitogenic and myogenic effect of obestatin, the activation capacity was studied of intracellular targets regulating proliferation (ERK1/2) and/or differentiation (p38 and Akt). […]

## obestatin
[1]
  loss of tibialis anterior muscle mass (weight) in relation to vehicle (PBS) controls: reduces the loss of muscle mass
ERK 1/2
  obestatin concentration at which activation of ERK 1/2 [pERK1/2(T202/Y204)] was observed: 0.1 nM
ERK 1/2; dose-response
  obestatin concentration at which pERK1/2(T202/Y204) phosphorylation levels reached saturable values: 5 nM
ERK 1/2; obestatin 5 nM
  time post-stimulation of maximum pERK1/2(T202/Y204) levels: 10 min

— patent US20150094264A1, “USE OF OBESTATIN FOR MUSCLE REGENERATION” (UNIVERSIDADE DE SANTIAGO DE COMPOSTELA, priority 2012, published 2015)
